Test results taken from the SangsterLogP compilation.

Details: not given

First: Cc1ccc2nc3sc(=O)sc3nc2c1
Second: CCOC(=O)Cn1c(=O)sc2cccc(Cl)c21
The logP of the first is higher: 3.78 for the first, 2.5 for the second.

First: CNC(=O)CSP(=O)(OC)OC
Second: COCC(=O)N(c1c(C)cccc1C)N1CCOC1=O
The logP of the first is lower: -0.75 for the first, 0.73 for the second.

Going from `CCN(Cc1c(F)cccc1Cl)c1c([N+](=O)[O-])cc(C(F)(F)F)cc1[N+](=O)[O-]` to `CCCN(CCC)c1c([N+](=O)[O-])cc(C(F)(F)F)c(N)c1[N+](=O)[O-]`, the logP falls from 5.45 to 4.1.

Compared with `O=C(Nc1ccccc1)Nc1ccnc(Cl)c1`, `CCCN(CCC)C(=O)SCc1ccccc1` is higher in logP: 3.2 for the first, 4.65 for the second.

Going from `[O-][n+]1nc(-n2ccnc2)nc2ccc(Cl)cc21` to `Clc1ccc(C2(Cn3cncn3)CC(Br)CO2)c(Cl)c1` (stereo unspecified), the logP rises from 2.04 to 3.24.

Going from `CCS(=O)(=O)Oc1ccc2c(c1)C(C)(C)CO2` to `CC1(C)OC(c2ccco2)CN1C(=O)C(Cl)Cl` (stereo unspecified), the logP falls from 2.41 to 2.12.

`CC1(C)[C@H](C(=O)O[C@H](C#N)c2cccc(Oc3ccccc3)c2)[C@@H]1/C=C\C(=O)OC(C(F)(F)F)C(F)(F)F` and `O=C(NC(=O)c1c(F)cccc1F)Nc1cc(Cl)c(OC(F)(F)C(F)C(F)(F)F)cc1Cl` (stereo unspecified) are within 0.2 log units of each other in logP: 5.26 for the first, 5.12 for the second.

Compared with `CCCCCC(C)OC(=O)COc1ccc(Cl)c2cccnc12` (stereo unspecified), `C#CCOC(=O)[C@@H](C)Oc1ccc(Oc2ncc(Cl)cc2F)cc1` is lower in logP: 5.03 for the first, 3.9 for the second.

First: COc1ccsc1CN(C(=O)CCl)c1c(C)cccc1C
Second: CC(Oc1ccc(Oc2cnc3cc(Cl)ccc3n2)cc1)C(=O)OCC1CCCO1 (stereo unspecified)
The logP of the first is lower: 3.53 for the first, 4.32 for the second.

Compared with `C#CCC1=C(C)C(OC(=O)C2C(C=C(C)C)C2(C)C)CC1=O` (stereo unspecified), `COC(=O)c1c(C(F)F)nc(C(F)(F)F)c(C2=NCCS2)c1CC(C)C` is lower in logP: 4.49 for the first, 3.89 for the second.

`CC(C)(C)C(O)/C(=C\c1ccc(Cl)cc1)n1cncn1` (stereo unspecified) and `FC(F)C(F)(F)OCC(Cn1cncn1)c1ccc(Cl)cc1Cl` (stereo unspecified) are within 0.2 log units of each other in logP: 3.67 for the first, 3.53 for the second.

Going from `CC1=C(C)S(=O)(=O)CCS1(=O)=O` to `C/C(=N\C#N)N(C)Cc1ccc(Cl)nc1`, the logP rises from -0.17 to 0.8.

Compared with `CCOP(=S)(OCC)OC(Cl)C(Cl)(Cl)Cl` (stereo unspecified), `CCCCCCCCn1sccc1=O` is lower in logP: 4.59 for the first, 2.45 for the second.

Same assay, conditions: pH 2.0

In the case of `COc1cc(OC)nc(NC(=O)NS(=O)(=O)N(C)S(C)(=O)=O)n1`, the logD is reported as 1.63.

Same assay, conditions: pH 5.0

Going from `CCS(=O)(=O)c1cccnc1S(=O)(=O)NC(=O)Nc1nc(OC)cc(OC)n1` to `Cc1cc(C2CC2)nc(Nc2ccccc2)n1`, the logD rises from 0.29 to 3.9.

Same assay, conditions: pH 5.6

With `O=c1c2cc(F)ccc2nc(-n2cncn2)n1-c1ccc(Cl)cc1Cl` the logD was 3.24.

Same assay, conditions: pH 6.1

Work on `Cc1cc(C)nc(Nc2ccccc2)n1` yielded a logD of 2.84.

Same assay, conditions: pH 6.5

Going from `CNC(=O)ON=C(C)C(C)S(C)(=O)=O` (stereo unspecified) to `COc1ccc(C(O)(c2cncnc2)C2CC2)cc1` (stereo unspecified), the logD rises from 1.11 to 1.91.

Same assay, conditions: pH 7.0

Compared with `CCOC(=O)CSc1nc(C(C)(C)C)nn1C(=O)N(C)C`, `CCOC(=O)CCN(SN(C)C(=O)Oc1cccc2c1OC(C)(C)C2)C(C)C` is higher in logD: 2.69 for the first, 4.3 for the second.

First: COc1cc(OC)n2nc(S(=O)(=O)Nc3c(Cl)ccc(C)c3Cl)nc2n1
Second: CC(C1CC1)C(O)(Cn1cncn1)c1ccc(Cl)cc1 (stereo unspecified)
The logD of the first is lower: 2.46 for the first, 2.91 for the second.

Compared with `CC(C)C(O)(c1ccc(OC(F)(F)F)cc1)c1cncnc1` (stereo unspecified), `CN1CSC(=S)N(C)C1` is lower in logD: 3.34 for the first, 1.4 for the second.

Same assay, conditions: pH 7.3

For `O=C(Nc1ccccc1)Nc1cnns1`, the logD was 1.77.

Details: not given
Remark: another data set of the same source

Compared with `CC(C)NC(=O)N1CC(=O)N(c2cc(Cl)cc(Cl)c2)C1=O`, `CC1COc2ccccc2N1C(=O)C(Cl)Cl` (stereo unspecified) is lower in logP: 3 for the first, 2.7 for the second.

Compared with `CCSCc1ccccc1OC(=O)NC`, `CCCCOC(=O)N(C)SN(C)C(=O)Oc1cccc2c1OC(C)(C)C2` is higher in logP: 2.04 for the first, 4.6 for the second.

Going from `COC(C)(C)CCCC(C)C/C=C/C(C)=C/C(=O)OC(C)C` (stereo unspecified) to `CC(C)OC(=O)C(C(=O)OC(C)C)=C1SCCS1`, the logP falls from 5.21 to 3.3.

Compared with `Clc1ccccc1-c1nnc(-c2ccccc2Cl)nn1`, `Nc1cnn(-c2ccccc2)c(=O)c1Cl` is lower in logP: 3.1 for the first, 1.19 for the second.

Going from `CC1=NNC(=O)N(/N=C/c2cccnc2)C1` to `CC1(C)CC/C(=C\c2ccc(Cl)cc2)C1(O)Cn1cncn1` (stereo unspecified), the logP rises from -0.18 to 3.29.

First: COP(=S)(OC)Oc1ccc(Sc2ccc(OP(=S)(OC)OC)cc2)cc1
Second: CCOc1ccc(C2(C(=O)OC(C#N)c3cccc(Oc4ccccc4)c3)CC2(Cl)Cl)cc1 (stereo unspecified)
The logP of the first is higher: 4.91 for the first, 4.19 for the second.

Compared with `Cl/C=C\CCl`, `C=CCN(CC=C)C(=O)C(Cl)Cl` is lower in logP: 2.06 for the first, 1.84 for the second.

Going from `CC(C)c1cc(Oc2ccccc2)cc(C(C)C)c1NC(=S)NC(C)(C)C` to `C/C=C\COCN(C(=O)CCl)c1c(CC)cccc1CC`, the logP falls from 5.76 to 3.51.

Compared with `CCOc1nc(C(Cl)(Cl)Cl)ns1`, `COP(=O)(OC)OC1=C(Cl)C2C=CCC12` (stereo unspecified) is lower in logP: 3.37 for the first, 2.32 for the second.

Compared with `CNC(=O)ON=C(C)C(C)SC` (stereo unspecified), `CCCCC(CC)CN1C(=O)C2C3C=CC(C3)C2C1=O` (stereo unspecified) is higher in logP: 1.11 for the first, 3.7 for the second.

`O=CNC(N1CCN(C(NC=O)C(Cl)(Cl)Cl)CC1)C(Cl)(Cl)Cl` (stereo unspecified) gave a logP of 2.2.
